Assay results as given in US7105553B2, “Thiazolyl amide derivatives” (Bayer Aktiengesellschaft, priority 1999, dated 2006).

Structure (SMILES)	melting point
CNS(=O)(=O)c1sc(N(C)C(=O)Cc2ccc(-c3ccc(Cl)cc3)cc2)nc1C	186 °C
Cc1nc(N(C)C(=O)Cc2ccc(-c3ncccc3C(F)(F)F)cc2)sc1S(N)(=O)=O.Cl	225 °C
CNS(=O)(=O)c1sc(N(C)C(=O)Cc2ccc(-c3ncccc3O)cc2)nc1C	225 °C
CNS(=O)(=O)c1sc(N(C)C(=O)Cc2ccc(-c3cnccn3)cc2)nc1C	187 °C
COCCN(C(=O)Cc1ccc(-c2cc(F)ccc2OC)cc1)c1nc(C)c(S(N)(=O)=O)s1	199 °C
Cc1nc(N(C)C(=O)Cc2ccc(-c3ccccc3)cc2)sc1S(=O)(=O)NCCOC(=O)CNC(=O)OC(C)(C)C	159 °C
CCOc1ccc(CC(=O)N(CCN(C)C)c2nc(C)c(S(=O)(=O)NC)s2)cc1	153 °C
CNS(=O)(=O)c1sc(N(C)C(=O)Cc2ccc(-c3cccc(Cl)c3)cc2)nc1C	187 °C
CNS(=O)(=O)c1sc(N(C)C(=O)Cc2ccc(-c3ccccc3OC(F)(F)F)cc2)nc1C	190 °C
CCOCCCNS(=O)(=O)c1sc(N(CCCOCC)C(=O)Cc2ccc(-c3cccc(OC)c3)cc2)nc1C	74 to 75 °C
CCOCCCNS(=O)(=O)c1sc(N(C)C(=O)Cc2ccc(-c3cccc(OC)c3)cc2)nc1C	125 to 127 °C
CCOCCNS(=O)(=O)c1sc(N(C)C(=O)Cc2ccc(OCC)cc2)nc1C	125 to 127 °C
CNS(=O)(=O)c1sc(N(C)C(=O)Cc2ccc(Br)cc2)nc1C	168 °C
CNS(=O)(=O)c1sc(N(C)C(=O)C(C)c2ccc(-c3ccccc3)cc2)nc1C (stereo not drawn)	170 to 172 °C
CNS(=O)(=O)c1sc(N(C)C(=O)Cc2ccc(-c3cccc(OC)c3)cc2)nc1C	154 °C
Cc1nc(N(C)C(=O)Cc2ccc(-c3cccc(O[Si](C)(C)C(C)(C)C)c3)cc2)sc1S(N)(=O)=O	161 °C
CNS(=O)(=O)c1sc(N(C)C(=O)Cc2ccc(-c3ncccc3N)cc2)nc1C	80 °C
CNS(=O)(=O)c1sc(N(C)C(=O)Cc2ccc(-c3cncc(C#N)c3)cc2)nc1C	130 °C
CNS(=O)(=O)c1sc(N(C)C(=O)Cc2ccc(-c3cnccc3C)cc2)nc1C	113 °C
CNS(=O)(=O)c1sc(N(C)C(=O)Cc2ccc(-c3ccccc3C(F)(F)F)cc2)nc1C	202 °C
CNS(=O)(=O)c1sc(N(C)C(=O)Cc2ccc(-c3ccccc3C)cc2)nc1C	167 °C
CNS(=O)(=O)c1sc(N(C)C(=O)Cc2ccc(-c3cccc(F)c3)cc2)nc1C	190 °C
COc1ccc(F)cc1-c1ccc(CC(=O)N(C)c2nc(C)c(S(N)(=O)=O)s2)cc1	219 °C
CCCCOc1ccc(CC(=O)N(C)c2nc(C)c(S(=O)(=O)NCCOCC)s2)cc1	68 to 70 °C
CNS(=O)(=O)c1sc(N(C)C(=O)Cc2ccc(-c3ccccc3OC)cc2)nc1C	192 °C
CNS(=O)(=O)c1sc(N(C)C(=O)Cc2ccc(-c3cccc4c3oc3ccccc34)cc2)nc1C	109 °C
Cc1cnc(N)c(-c2ccc(CC(=O)N(C)c3nc(C)c(S(N)(=O)=O)s3)cc2)c1	183 °C
Cc1nc(N(C)C(=O)Cc2ccc(-c3ccccc3)cc2)sc1S(=O)(=O)NCCN(C)C(=O)OC(C)(C)C	175 °C
Cc1nc(N(C)C(=O)Cc2ccc(-c3cccc(F)c3F)cc2)sc1S(N)(=O)=O	202 °C
CNS(=O)(=O)c1sc(N(C)C(=O)Cc2ccc(-c3cncnc3)cc2)nc1C	193 °C

The next lines start with the values.

melting point	Structure (SMILES)
234 °C	Cc1nc(N(C)C(=O)Cc2ccc(-c3cncnc3)cc2)sc1S(N)(=O)=O
206 °C	Cc1nc(N(C)C(=O)Cc2ccc(-c3ncccc3F)cc2)sc1S(N)(=O)=O.Cl
234 °C	CC(=O)Nc1cccc(-c2ccc(CC(=O)N(C)c3nc(C)c(S(N)(=O)=O)s3)cc2)c1
128 °C	Cc1nc(N(C)C(=O)Cc2ccc(-c3ccccc3)cc2)sc1S(=O)(=O)NCCO[Si](C)(C)C(C)(C)C
217 °C	Cc1nc(N(C)C(=O)Cc2ccc(-c3cnccn3)cc2)sc1S(N)(=O)=O
204 °C	Cc1nc(N(CCc2ccncc2)C(=O)Cc2ccc(-c3ccccc3)cc2)sc1S(N)(=O)=O
133 °C	CNS(=O)(=O)c1sc(NC(=O)Cc2ccc(-c3ccccc3)cc2)nc1C
179 °C	Cc1nc(N(C(=O)Cc2ccc(-c3ccccc3)cc2)C2CC2)sc1S(N)(=O)=O
202 °C	CNS(=O)(=O)c1sc(N(C(=O)Cc2ccc(-c3ccccc3)cc2)C2CC2)nc1C
163 °C	COCCN(C(=O)Cc1ccc(-c2ccccc2)cc1)c1nc(C)c(S(N)(=O)=O)s1
154 °C	CCCN(C(=O)Cc1ccc(-c2ccccc2)cc1)c1nc(C)c(S(N)(=O)=O)s1
161 °C	CNS(=O)(=O)c1sc(N(Cc2cccnc2)C(=O)Cc2ccc(-c3ccccc3)cc2)nc1C
158 °C	CNS(=O)(=O)c1sc(N(CCCN2CCCC2=O)C(=O)Cc2ccc(-c3ccccc3)cc2)nc1C
142 to 143 °C	COCCCNS(=O)(=O)c1sc(N(C)C(=O)Cc2ccc(-c3ccccc3)cc2)nc1C
139 to 140 °C	CCOCCCNS(=O)(=O)c1sc(N(C)C(=O)Cc2ccc(-c3ccccc3)cc2)nc1C
180 °C	CNS(=O)(=O)c1sc(N(C)C(=O)Cc2ccc(-c3ccccc3)cc2)nc1C
177 °C	Cc1nc(N(C)C(=O)Cc2ccc(-c3cccnc3)cc2)sc1S(N)(=O)=O.Cl

melting point	Structure (SMILES)
216 °C	Cc1nc(N(C)C(=O)Cc2ccc(-c3ccccc3)cc2)sc1S(=O)(=O)NCC(F)(F)F
108 °C	CCCN(C(=O)Cc1ccc(-c2ccccc2)cc1)c1nc(C)c(S(=O)(=O)NCC(F)(F)F)s1
122 °C	CCOc1ccc(CC(=O)N(Cc2ccncc2)c2nc(C)c(S(N)(=O)=O)s2)cc1
205 °C	Cc1nc(N(Cc2ccccn2)C(=O)Cc2ccc(-c3ccccc3)cc2)sc1S(N)(=O)=O
189 °C	Cc1nc(N(Cc2cccnc2)C(=O)Cc2ccc(-c3ccccc3)cc2)sc1S(N)(=O)=O
130 °C	Cc1nc(N(Cc2ccncc2)C(=O)Cc2ccc(-c3ccccc3)cc2)sc1S(N)(=O)=O
204 °C	Cc1ccncc1-c1ccc(CC(=O)N(C)c2nc(C)c(S(N)(=O)=O)s2)cc1
264 °C	Cc1nc(N(C)C(=O)Cc2ccc(-c3ncccc3N)cc2)sc1S(N)(=O)=O.Cl
215 °C	Cc1nc(N(C)C(=O)Cc2ccc(-c3c(F)cccc3F)cc2)sc1S(N)(=O)=O
138 °C	Cc1nc(N(C)C(=O)Cc2ccc(-c3ccccc3)cc2)sc1S(=O)(=O)NCCN
136 °C	Cc1nc(N(CCc2ccccn2)C(=O)Cc2ccc(-c3ccccc3)cc2)sc1S(N)(=O)=O
161 °C	Cc1nc(N(CC2CC2)C(=O)Cc2ccc(-c3ccccc3)cc2)sc1S(N)(=O)=O
117 °C	C=CCN(C(=O)Cc1ccc(-c2ccccc2)cc1)c1nc(C)c(S(N)(=O)=O)s1
174 °C	Cc1nc(N(CCc2ccccc2)C(=O)Cc2ccc(-c3ccccc3)cc2)sc1S(N)(=O)=O
203 °C	Cc1nc(N(CCCN2CCCC2=O)C(=O)Cc2ccc(-c3ccccc3)cc2)sc1S(N)(=O)=O
202 °C	Cc1nc(N(CCN2CCCC2=O)C(=O)Cc2ccc(-c3ccccc3)cc2)sc1S(N)(=O)=O
